In patent publication US7399608B2, “Microbial detection and quantification” (Kimberly-Clark Worldwide, Inc., priority 2003, dated 2008):

Assays:
[1] = system: bacteria from aged chicken juice; assay: Reichardt's dye indicator spray on surfaces contaminated with aged chicken; settings: for false-positive test: chicken broth versus aged chicken juice: 160 mg in 10 ml isopropanol
E. coli [2] = assay: De-colorization of Reichardt's dye-coated paper by bacteria solutions; parameters: species or system Escherichia coli; settings: paper brush-coated with 80 mg/10 mL acetonitrile; 100 μL of 10^7 to 10^4 CFU/mL
Procedure: (§1) This experiment tested the ability of a surface coating of Reichardt's dye to respond to bacterial contamination. […] To this paper was added 100 μL aliquots of 10^7, 10^6, 10^5, and 10^4 CFU/mL E. coli or S. aureus solutions (8B). Water was used as a negative control. […] It was later determined that while both bacteria solutions were indeed at 10^7 CFU/mL concentrations, the actual concentration of the S. aureus solution was 7×10^7 CFU/mL compared to 1×10^7 CFU/mL for the E. coli solution.

S. aureus [3] = assay: De-colorization of Reichardt's dye-coated paper and stickers by bacteria; parameters: species or system Staphylococcus aureus
Procedure: as §1
A sheet of paper self-adhesive stickers (Avery-Dennison) was also brush-coated with two different concentrations of Reichardt's dye solution (160 mg/10 mL acetonitrile, 80 mg/10 mL acetonitrile). The stickers were applied to the lid and latch mechanism of a Huggies® Wet Wipes box. A gloved hand was used to transfer 10^7 CFU/mL S. aureus to the surface of the stickers. […] The sticker could provide a means for easy and rapid detection of bacterial contamination for a variety of applications.

gram-positive bacteria = assay: Dye solution added to bacteria spot on SCOTT towel
Procedure: A new potential for the Reichardt's dye-based bacterial indicator was realized through testing of liquid dye with bacteria on a substrate rather than substrate-bound dye coming into contact with liquid bacteria (Example 5). This experiment focused on determining how the dye solution responds to known concentrations of bacteria residing on a surface. 100 μl of 10^8 CFU/ml gram-positive bacteria was placed on a SCOTT® towel (FIG. 9A). To this spot was added a drop of the Reichardt's dye dissolved in acetonitrile (160 mg in 10 ml acetonitrile) (9B).
For comparison, a spot of dye was dried onto the towel and the same amount of bacteria was added. […] Additional drops of the dye were added to the spot of bacteria (9C), and de-colorization continued until the fourth drop, at which point the purple color persisted (9D). Attempts to restore the dye color on the dye-coated SCOTT® towel by adding acetonitrile using a pipette were unsuccessful (9E).

E. coli [4] = assay: Titration of substrate-bound microorganism with Reichardt's dye solution; parameters: species or system Escherichia coli; settings: 160 mg in 10 ml acetonitrile, 10 μl aliquots; 100 μl of 10^7 CFU/ml on towel
[5] = Reichardt's dye indicator with bacterial cell-wall components; settings: 160 mg in 10 mL acetonitrile
E. coli [6] = assay: Cyclodextrin enhancement: coated towel with bacteria; parameters: species or system Escherichia coli; settings: hydroxypropyl-beta-cyclodextrin coated towel
Procedure: A SCOTT® paper towel was first coated with hydroxypropyl-beta-cyclodextrin (from Cerestar International, Hammond, Ind., USA) in solution in water (1 gram in 20 ml) by dipping and air-drying at ambient temperature. When dry the coated paper towel was treated with a solution of Reichardt's dye in isopropanol (1 weight percent) and allowed to air-dry. The dried towel was a purple/blue in color. Here the cyclodextrin hinders the crystallization of the dye allowing a more vivid color of the dye to occur on the paper towel. This coated towel was used in a test with gram-negative bacteria (E. coli) and found to turn colorless in less than 5 seconds when an aliquot of 100 microliters of media containing 10,000 CFU/ml was applied to the towel. […] Thus by hindering the dye from crystallizing, the dye is believed to be present on the substrate as single molecules and therefore the sensitivity of the dye to bacteria levels increases. The inventors believe that by careful use of a coating (e.g. cyclodextrin) on the towel a mono-molecular coating of dye will occur on the surface of the substrate and maximum sensitivity will occur.

E. coli [7] = assay: Dry sample testing on dye-coated towel; parameters: species or system Escherichia coli; settings: dry colony rubbed onto pre-moistened dye coated SCOTT towel
Procedure: A test using the Reichardt's dye coated paper towel with a “dry” bacteria sample, not in solution was carried out. A dry sample of a colony of E. coli bacteria lifted off an agar petri dish containing a series of growing cultures was used. This dry sample was then rubbed onto a pre-moistened dye coated SCOTT® paper towel. The area where the colony was placed and rubbed turned colorless within 1-5 seconds. This is a similar to how a wet wipe towel would be used and it performed well.

Bleach indicator test = assay type: physicochemical; settings: mixture with TMB coated on SCOTT towel
E. coli [8] = assay: Towel coated with Reichardt's dye and TMB exposed to bacteria; parameters: species or system Escherichia coli; settings: E. coli suspension drop-wise
[9] = UV-Vis absorption spectra in different solvents; assay type: physicochemical
Text: Reichardt's dye was used without further purification. […] Solvents used were obtained from Aldrich Chemical and were HPLC grade. A Shimadzu UV-1601 UV-Visible Spectrophotometer (Shimadzu Corporation) was used to measure the longest wavelength peak absorption of the dyes in the range of 400 to 800 nm, dissolved in three different solvents, contained in quartz curvettes. The following table contains the results of the testing with the solvents on the left side and dyes across the top.

Rhinovirus = assay: Virus detection with Reichardt's dye
S. aureus [10] = assay: Semi-quantification of bacterial contamination on dye-treated paper; parameters: species or system Staphylococcus aureus
Procedure: The color differences at lower concentrations were less distinct, particularly for the brush-coated sheet. A blind study was then conducted. […] Concentrations of these three drops were unknown to two of the experiment participants. After approximately 2 minutes, the drops were removed and blotted. Using the control regions, the concentrations of each sample were each visually estimated by these two persons. Both persons correctly estimated the concentration of the first sample to be 10^6 CFU/mL. […] The persons, however, incorrectly estimated the third sample to be 10^3 CFU/mL. […] The present inventors believe, however, that the concentration of the chromogen and uniformity of the coating may be readily selected to achieve accurate results at such low concentrations.

## [O-]c1c(-c2ccccc2)cc(-[n+]2c(-c3ccccc3)cc(-c3ccccc3)cc2-c2ccccc2)cc1-c1ccccc1 [Reichardt's dye, 2,6-diphenyl-4-(2,4,6-triphenylpyridinio)-phenolate]
[1]; 160 mg in 10 mL acetonitrile, sprayed on ceramic plate
  color change of indicator spray on area contacted by aged chicken: decolorized
[1]; 160 mg in 10 mL isopropanol, plastic doorknob marked with aged chicken juice
  color change of indicator spray on contaminated doorknob: de-colorization of the Reichardt's dye from blue to colorless
[1]; ceramic surface
  false-positive test: chicken broth versus aged chicken juice: only the side containing the aged chicken juice (and thus bacteria) was de-colorized
[1]; hot plate surface
  false-positive test: chicken broth versus aged chicken juice: only the side containing the aged chicken juice (and thus bacteria) was de-colorized
[1]; isopropanol spray, ceramic surface cleaned again with 60% ethanol antiseptic
  de-colorization after cleaning guided by the spray: no de-colorization took place
E. coli [2]
  de-colorization time: < 1 min
S. aureus [3]; paper brush-coated with 80 mg/10 mL acetonitrile, 100 μL of 10^7 to 10^4 CFU/mL
  de-colorization time: < 1 min
S. aureus [3]; stickers coated with 160 or 80 mg/10 mL acetonitrile, 10^7 CFU/mL transferred by gloved hand
  de-colorization of coated stickers: rapidly de-colorized
gram-positive bacteria; 160 mg in 10 ml acetonitrile dropped on 100 μl of 10^8 CFU/ml on SCOTT towel
  de-colorization of dye solution added to bacteria spot: immediately de-colorized
gram-positive bacteria; 160 mg in 10 ml acetonitrile, 100 μl of 10^8 CFU/ml
  drop at which the purple color persisted: fourth drop
gram-positive bacteria; dye spot dried on cellulosic towel, same amount of bacteria
  time to de-colorize when bacteria are placed onto dye dried on towel: several minutes
E. coli [4]
  Amount of Dye Required for Persistent Color: 80 µL
[5]
  de-colorization by the other cell-wall compounds (LPS, detoxified LPS, lipoteichoic acid): eventual de-colorization
[5]; both experimental set-ups
  de-colorization by muramic acid: near instantaneous de-colorization
E. coli [6]; 1 weight percent dye in isopropanol
  lowest bacteria concentration at which decolorization occurred: 500 CFU/ml
E. coli [6]; 1 weight percent dye in isopropanol, 100 microliters of 10,000 CFU/ml
  time to turn colorless: less than 5 seconds
E. coli [6]; 500 CFU/ml
  time to decolorize: ≤ 15 s
E. coli [7]
  time to turn colorless: 1 to 5 s
Bleach indicator test
  response of Reichardt's dye to dilute bleach: de-colorizing
E. coli [8]
  time to decolorize to a white spot: less than 10 seconds
[9]; Acetone
  perceived color of solution: (bluish-green)
[9]; Acetonitrile
  perceived color of solution: (Blue)
[9]; Methanol
  perceived color of solution: (red)
Rhinovirus; 80 milligrams/10 milliliters acetonitrile with or without TWEEN 80, 100-microliter drop of undiluted virus on SCOTT towel
  dye added until the color persisted: approximately 9 drops
Rhinovirus; virus diluted serially in saline, 50-microliter aliquots, 3 minutes
  lowest ten-fold dilution at which stickers changed color: 10^−6
S. aureus [10]; actual 10^4 CFU/mL, dip-coated sheet
  visually estimated concentration, blind study third sample: 10^3 CFU/mL
S. aureus [10]; actual 10^5 CFU/mL, brush-coated sheet
  visually estimated concentration, blind study second sample: 10^5 CFU/mL
S. aureus [10]; actual 10^6 CFU/mL, dip-coated sheet
  visually estimated concentration, blind study first sample: 10^6 CFU/mL
